By ED50 is commonly meant the dose that gives a 50% effect, or the effect in half of the subjects.

Data on seven compounds can be found in patent US7279500B2, “Sulfonamide cannabinoid agonists and antagonists” (Virginia Commonwealth University, priority 2002, dated 2007).

Where two headings read alike, the source gives them in different places.

In test [1] the target is CB1 receptor (UniProt P21554). Kind of test: CB1 receptor affinity assay. The test is classed as binding. To be noted: for Kd: read-out: CB1KD. As for the experimental part: (§1) Mouse Tetrad and CB1 and CB2 receptor Affinity. The mouse tetrad and CB1 and CB2 receptor affinity assays were carried out as previously described in Wiley, J. L., Beletskaya, I. D., Ng, E. W., Dai, Z., Crocker, P. J., Mahadevan, A, Razdan, R. K., Martin, B. R., Resorcinols derivatives: a novel template for the delevopment of cannabinoid CB1/CB2 and CB2-selective agonists. J. Pharmacol. Exp. Ther. 301: 679-689, 2002.
(§2) The incorporation of sulfonaminde moieties is known to impart antagonistic activity in some classes of compounds. There is precedent for sulfonamide derivatives to show potent antagonist activity in peptidoleukotrienes (see for example, Matassa et al., J. Med. Chem. 1990, 33, 2621-2629; Jacobs et al., J. Med. Chem. 1993, 36, 394-409). In the development of the present invention, a sulfonamide moiety, SO2R, in which the identity of R was varied, was incorporated into the terminal position of a tetrahydrocannabinol (THC) side chain, which was also varied (saturated or unsaturated) as described above. The resulting compounds were tested for CB1 and CB2 receptor binding affinity, and cannabinoid agonist and antagonist properties using the mouse tetrad test, as described in Materials and Methods.

For a further test, the target named is CB2 receptor (Homo sapiens, UniProt P34972). Description: CB2 receptor affinity assay. The test is classed as binding. The protocol: as §1, §2
Another test has as its system mice. Kind of test: Mouse tetrad test (sedation, analgesia, hypothermia) following i.v. administration. The test is classed as in vivo. To be noted: for ED50: iv. The protocol: as §1, §2
The compounds were tested for their CB1 and CB2 receptor binding ability, and their cannabinoid agonist and antagonist properties.

Test [2] concerns the target T1, CB1 receptor (Rattus norvegicus, UniProt P20272). Kind of test: GTPγS binding in rat brain membranes, compound alone (inverse agonism). Format: biochemical. Further details: from tissue; host or cells: rat brain membranes. To be noted: for GTPγS stimulation (1 μM): rat brain membranes. From the text: FIG. 2. Compound O-2050 lacks inverse agonism in GTPγS binding in rat brain membranes. X axis, concentration of O-2050 (M); Y axis, % stimulation of GTPγS binding.
In order to determine whether O-2050 had inverse agonist properties, the compound was examined alone in the GTPγS binding assay. […] The performance of O-2050 in this assay in comparison to two other compounds with unsaturated side chains and varying R groups (O-1991, R=ethyl, and O-1993, R=butyl) are given in Table 3.
(GTPγS resists hydrolysis and so accumulates on activated G proteins.)

Test [3] concerns the target T2, CB1 receptor (Mus musculus, UniProt P47746).
T2 construct: O-2050 behaves as a CB1 receptor antagonist at naturally expressed CB1 receptors; from tissue; host or cells: mouse vas deferens
Kind of test: Antagonism of WIN 55,212-2 inhibition of electrically induced contractions of mouse vas deferens. The test is classed as cell-based. The protocol: FIG. 3. Compound O-2050 antagonism of WIN 55,212-2 in mouse vas deferens. X axis, concentration of WIN 55,212-2; Y axis, % inhibition of WIN 55,212-2 activity (mean % inhibition±standard error [s.e.] of the mean). Open circles=vehicle control (WIN 55212-2 added after pretreatment with dimethylsulfoxide (DMSO), the solvent in which the O-2050 was dissolved; open triangles: 1 nM O-2050 (WIN 55,212-2 added after pretreatment with 1 nM O-2050); filled circles: 10 nM O-2050 (WIN 55,212-2 added after pretreatment with 10 nM O-2050); filled triangles: 31.62 nM O-2050 (WIN 55,212-2 added after pretreatment with 31.62 nM O-2050); filled squares: 100 nM O-2050 (WIN 55,212-2 added after pretreatment with 100 nM O-2050.
These observations were extended by examining O-2050 in the mouse vas deferens, a smooth muscle preparation that is regulated by the cannabinoid system.

Test [4] has as its system mouse vas deferens. Description: Mouse vas deferens, compound alone (inverse agonism). Format: cell-based. The conditions noted are these: up to 1000 nM. The source says:
FIG. 4. Compound O-2050 lacks inverse agonism in GTPγS binding in mouse vas deferens. Y axis, % enhancement±s.e. (standard error of the mean) of GTPγS binding in mouse vas deferens by O-2050 at the indicated concentrations.
In order to determine whether O-2050 has inverse agonist properties in the mouse vas deferens, the compound was examined alone in this tissue preparation. […] O-2050 therefore differs from the putative inverse agonist, SR141716A, which does enhance the amplitude of these contractions in this bioassay system (e.g. see Pertwee et al., 1996, Eur. J. Pharmacol. 315: 195-201). […] Therefore, O-2050 lacks inverse agonist properties in yet another system that is regulated by the cannabinoids.

Test [5] has as its target T1, CB1 receptor. Description: Block of CP 55,940-stimulated GTPγS binding in rat brain tissue. Also noted: from tissue; host or cells: rat brain tissue. Format: biochemical. As for the experimental part: FIG. 1. Compound O-2050 blocks CP 55,940 stimulation of GTPγS binding. O-2050 was tested for its ability to block stimulation of GTPγS binding by CP 55,940. […], log concentration of O-2050; Y axis, % stimulation by CP 55,940.
The above properties of O-2050 are indicative of an antagonist. Therefore, the ability of O-2050 to block the agonist effects of CP 55,940, a highly efficacious cannabinoid, in the in vitro GTPγS binding assay in rat brain tissue was tested. The assay is an in vitro functional measure of CB1 receptor activation.

For test [6], the system named is mouse vas deferens. The conditions noted are these: literature, Pertwee et al. 1996; cited from earlier work.
The mark [7] stands for this setting: mouse tetrad, i.v. administration, read-out: Analgesia ED50.
The mark [8] stands for this setting: mouse tetrad, i.v. administration, read-out: Sedation ED50.
Setting [9] is: mouse tetrad, i.v. administration, read-out: Temperature (hypothermia) ED50.
The mark [10] stands for this setting: mouse tetrad, i.v. administration.

Chain of CB2 receptor (P34972 whole entry): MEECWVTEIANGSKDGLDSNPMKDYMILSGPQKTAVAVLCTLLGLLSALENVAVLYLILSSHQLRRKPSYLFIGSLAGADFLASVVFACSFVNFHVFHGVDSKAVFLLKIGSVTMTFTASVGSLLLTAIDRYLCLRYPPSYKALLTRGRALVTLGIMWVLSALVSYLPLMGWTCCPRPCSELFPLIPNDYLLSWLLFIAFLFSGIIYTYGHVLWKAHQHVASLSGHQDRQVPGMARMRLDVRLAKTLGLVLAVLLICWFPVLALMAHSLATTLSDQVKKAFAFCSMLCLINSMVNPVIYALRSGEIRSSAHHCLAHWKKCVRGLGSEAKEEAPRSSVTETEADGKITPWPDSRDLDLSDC
T2 sequence (P47746 whole entry): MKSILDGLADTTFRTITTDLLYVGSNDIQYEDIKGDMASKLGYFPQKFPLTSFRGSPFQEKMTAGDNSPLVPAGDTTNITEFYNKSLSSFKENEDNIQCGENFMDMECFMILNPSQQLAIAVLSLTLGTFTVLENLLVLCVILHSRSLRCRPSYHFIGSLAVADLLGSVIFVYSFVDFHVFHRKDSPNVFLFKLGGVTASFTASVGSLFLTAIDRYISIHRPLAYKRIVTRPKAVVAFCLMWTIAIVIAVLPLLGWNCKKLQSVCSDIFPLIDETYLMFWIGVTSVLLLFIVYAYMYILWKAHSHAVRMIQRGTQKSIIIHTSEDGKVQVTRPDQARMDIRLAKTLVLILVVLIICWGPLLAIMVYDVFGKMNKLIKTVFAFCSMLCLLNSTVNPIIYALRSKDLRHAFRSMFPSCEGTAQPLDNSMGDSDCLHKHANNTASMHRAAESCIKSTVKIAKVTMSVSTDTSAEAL
T1 sequence (P20272 whole entry): as the sequence (P47746 whole entry) above, with D95E counted along it

Turning to `CCS(=O)(=O)NCCCC#CCc1cc(O)c2c(c1)OC(C)(C)C1CC=C(C)CC21` (stereo not shown) [Compound O-1991, 3-Norpentyl 3-(6-ethanesulfamidohex-2-yne-yl)-Δ^8-tetrahydrocannabinol], at CB1 receptor [1], the “CB1 receptor affinity (in words)” value is on record as “moderate affinity” and the Kd was 20 ± 13 nM. Further, at CB2 receptor, the “CB2 receptor affinity (in words)” value is listed as “high affinity” and the Kd was 1.4 ± 0.2 nM. In addition, in the test on mice (i.v. administration), the “Agonist potency in mouse tetrad test (in words)” value (shortened to “Agonist potency”) is “moderate to low pharmacological agonist potency”. Moreover, in the test with mice (setting [7]), the 50% effective dose (ED50) was 0.9 mg/kg. Moreover, the 50% effective dose (ED50) in the test with mice (setting [8]) was 1.7 mg/kg. Moreover, in the test on mice (setting [9]), the 50% effective dose (ED50) is 0.8 mg/kg. Besides, at CB1 receptor [2], the “Negative stimulation of GTPγS binding / agonist character (in words)” value is “weak agonists” and the “GTPγS stimulation (1 μM)” value is recorded as 29%.
As to `CCCCS(=O)(=O)NCCCC#CCc1cc(O)c2c(c1)OC(C)(C)C1CC=C(C)CC21` (stereo not shown) [Compound O-1993], the “CB1 receptor affinity (in words)” value at CB1 receptor [1] was “moderate affinity”. For the same compound, the Kd on CB1 receptor [1] was 70 ± 10 nM; at CB2 receptor, 86 ± 7 nM. Moreover, at CB2 receptor, the “CB2 receptor affinity (in words)” value is on record as “only moderate affinity”. In the test with mice (i.v. administration), the “Agonist potency” value is reported as “moderate to low pharmacological agonist potency”. In addition, the median effective dose (ED50) in the test with mice (setting [7]) was determined as 14 mg/kg; with mice (setting [8]) it was 7.6 mg/kg; in the test with mice (setting [9]), 12 mg/kg. In addition, the “Negative stimulation of GTPγS binding / agonist character (in words)” value at CB1 receptor [2] was “weak agonists”. The “GTPγS stimulation (1 μM)” value at CB1 receptor [2] was 30%.
`CC1=CCC2C(C1)c1c(O)cc(C(C)(C)CCCCNS(=O)(=O)c3ccccc3)cc1OC2(C)C` (stereo not shown) [Compound O-2048, 1,1-Dimethyl-5-phenylsulfamido-Δ^8-tetrahydrocannabinol]: the “CB1 receptor affinity (in words)” value at CB1 receptor [1] is given as “high affinity”. Besides, on CB1 receptor [1], the Kd came to 4.1 ± 0.4 nM. Further, the “CB2 receptor affinity (in words)” value at CB2 receptor was “high affinity”. The “Agonist potency” value in the test with mice (i.v. administration) was “potent cannabinoid agonists”. Besides, the ED50 is 2.8 mg/kg in the test with mice (setting [7]), 0.3 mg/kg in the test on mice (setting [8]) and 5.6 mg/kg in the test with mice (setting [9]).
`CC1=CCC2C(C1)c1c(O)cc(CC#CCCCNS(C)(=O)=O)cc1OC2(C)C` (stereo not shown) [Compound O-2050, 3-Norpentyl-3-(6-methanesulfamidohex-2-yne-yl)-Δ^8-tetrahydrocannabinol]: the “CB1 receptor affinity (in words)” value on CB1 receptor [1] was “high affinity”. In addition, the Kd at CB1 receptor [1] is 2.5 ± 0.4 nM; on CB2 receptor it was 0.2 ± 0.06 nM. At CB2 receptor, the “CB2 receptor affinity (in words)” value was “high affinity”. Further, the 50% effective dose (ED50) in the test on mice (setting [7]) was greater than 30 mg/kg; in the test on mice (setting [8]), 4.3 mg/kg; in the test with mice (setting [9]) it was greater than 30 mg/kg. Besides, the “Sedation (in words)” value in the test with mice (mouse tetrad) is on record as “only weakly active”. Moreover, the “Analgesia ED50” value in the test with mice (setting [10]) is greater than 30 mg/kg. For the same compound, the “Temperature (hypothermia) ED50” value with mice (setting [10]) is given as greater than 30 mg/kg. The Kb at CB1 receptor [3] and on CB1 receptor [5] was 1 nM in each case. The “Dextral Shift of WIN 55,212-2 log concentration-response curve” value came out at 2.8 on CB1 receptor [3] (1 nM O-2050), 7.5 at CB1 receptor [3] (10 nM O-2050), 15 at CB1 receptor [3] (20 nM O-2050) and 104 on CB1 receptor [3] (100 nM O-2050). For the same compound, in the test with mouse vas deferens [4], the “Enhancement of amplitude of electrically-evoked contractions” value was “did not enhance”. For the same compound, the “Negative stimulation of GTPγS binding / agonist character (in words)” value on CB1 receptor [2] is recorded as “failed to produce negative stimulation”. For the same compound, the “GTPγS stimulation (1 μM)” value on CB1 receptor [2] is listed as 11%.
For the compound `CCS(=O)(=O)NCCCCC(C)(C)c1cc(O)c2c(c1)OC(C)(C)C1CC=C(C)CC21` (stereo not shown) [Compound O-2113, 1,1-Dimethyl-5-ethanesulfamido-Δ^8-tetrahydrocannabinol], the “CB1 receptor affinity (in words)” value on CB1 receptor [1] is on record as “high affinity”. For the same compound, the Kd at CB1 receptor [1] amounted to 1.7 ± 0.3 nM. Moreover, the “CB2 receptor affinity (in words)” value at CB2 receptor is given as “high affinity”. Besides, the “Agonist potency” value in the test with mice (i.v. administration) was “potent cannabinoid agonists”. Moreover, the figures for the ED50 with mice (setting [7]), in the test with mice (setting [8]) and in the test with mice (setting [9]) were 0.3 mg/kg, 0.4 mg/kg and 1.4 mg/kg, respectively.
As to `Cc1c(C(=O)NN2CCCCC2)nn(-c2ccc(Cl)cc2Cl)c1-c1ccc(Cl)cc1` [SR141716A], the “Enhancement of amplitude of electrically-evoked contractions” value in the test with mouse vas deferens [6] is “does enhance”.
For `CCCCCc1cc(O)c2c(c1)OC(C)(C)[C@@H]1CCC(C)=C[C@@H]21` [THC, reference compound], at CB1 receptor [2], the “GTPγS stimulation (1 μM)” value amounted to 15%.
